Measured values: US7851573B2, “Aqueous polytetrafluoroethylene emulsion, polytetrafluoroethylene fine powder and porous material obtained therefrom” (Asahi Glass Company, Limited, priority 2005, dated 2010)

Key:
[1] = 1-octanol/water partition coefficient (LogPOW) by HPLC, OECD Test Guideline 117; type: physicochemical; conditions: for LogPOW: HPLC method, ODS column, acetonitrile/0.6 mass % HClO4 aq. 1/1, 40° C., calibration with C7-C10 carboxylic acids; for bioaccumulation potential / accumulation in a living organism: judged from the LogPOW value compared to APFO
Procedure: In accordance with OECD Test Guideline 117, 1-octanol/water partition coefficient (LogPOW) of a fluorinated emulsifier was measured by using HPLC (high performance liquid chromatography).
Conditions for the measurement were as follows: column: TOSOH ODS-120T column ((φ 4.6 mm×250 mm), eluent: acetonitrile/0.6 mass % of HClO4 aqueous solution=1/1 (vol/vol %), flow rate: 1.0 mL/minute, sample amount: 300 μL, column temperature: 40° C., and detection light: UV 210 nm (WO2005-42593).
HPLC was carried out on standard substances (heptanoic acid, octanoic acid, nonanoic acid and decanoic acid) having known 1-octanol/water partition coefficients, and a calibration curve was prepared from the respective elution times and octanol/water partition coefficients of the respective standard substances. Based on this calibration curve, a value of partition coefficient (LogPOW) between 1-octanol and water was calculated from the elution time by HPLC of the fluorinated emulsifier.
Further, in general, in order to judge whether or not a chemical substance is apt to be accumulated in a living organism, a testing method for measurement of a partition coefficient (LogPOW) between 1-octanol and water, is stipulated. As the testing method, in addition to “Partition Coefficient (1-octanol/water) Shake Flask Method” as stipulated in OECD test guideline 107 and in Japanese Industrial Standards Z 7260-107 (2000), a HPLC method (high-performance liquid chromatography) as stipulated and published in OECD Test Guideline 117, is used. A compound having a large partition coefficient value has a large tendency for bioaccumulation, and a compound having a small value means a small tendency for bioaccumulation. In a case where the LogPOW value is less than 3.5, it is considered proper to judge that it is not a high-concentration, and bioaccumulation is also considered to be small.

[2] = background art statement, no method given; cited from earlier work

Structure (SMILES) | LogPOW [1] | bioaccumulation potential [2] | bioaccumulation potential / accumulation in a living organism [1]
N.O=C(O)C(F)(F)C(F)(F)C(F)(F)C(F)(F)C(F)(F)C(F)(F)C(F)(F)F [CF3(CF2)6COONH4, ammonium perfluorooctanoate] | 3.67 | high | –
N.O=C(O)C(F)(OC(F)(F)C(C(F)(F)F)C(F)(F)C(F)(F)C(F)(F)F)C(F)(F)F (stereo not shown) [CF3CF2CF2C(CF3)CF2OCF(CF3)COONH4] | – | higher bioaccumulation potential than APFO | –
N.O=C(O)C(F)(F)OC(F)(F)C(F)(F)OC(F)(F)C(F)(F)F [CF3CF2OCF2CF2OCF2COONH4] | 3.13 | – | low
N.O=C(O)C(F)(OC(F)(F)C(F)(OC(F)(F)C(F)(F)F)C(F)(F)F)C(F)(F)F (stereo not shown) [CF3CF2OCF(CF3)CF2OCF(CF3)COONH4] | 4.03 | – | high
